Patent US20150110907A1, “METHOD OF TESTING THE ACTIVITY OF A POTENTIALLY ACTIVE SUBSTANCE TO INHIBIT THE ENZYMATIC ACTIVITY OF PHOSPHOLIPASE A2” (BASF Beauty Care Solutions France S.A.S., priority 2002, published 2015)
Read-outs that look alike come from different tables or passages of the source. Each block holds one compound with its values, some of them ahead of it.

Target: T1, PLA2 of type I originating from pig pancreas (Sus scrofa, UniProt P00592)
T1 construct: originates from pig pancreas (enzyme of type I); from tissue; host or cells: pig pancreas
Experiment: Acellular in vitro inhibition of PLA2 of type I, determination of free fatty acids
Type: biochemical
Conditions: for Inhibition (%) Product diluted at 1/100 in demineralized water: initial solution diluted at 1/100 in demineralized water; for inhibition at 1000 µM: 1 mM; for Inhibition by substance tested pure (%): percentage inhibition with respect to the control
Procedure: The study of the inhibition of phospholipase A2 (PLA2) is carried out in an acellular in vitro model which aims to be a reflection, near as possible, of the situation encountered in vivo.
The PLA2s of type I and of type II are used in vitro, in a model comprising: • 1) a substrate selected from the ester derivatives of arachidonic acid (such as β-arachidonoyl γ-palmitoyl L-α-phosphatidylcholine, which is a phospholipid containing arachidonic acid in SN2 position, site hydrolyzed by the phospholipase A2) which specifically is the fatty add involved in the synthesis of the mediators of the inflammation, • 2) a bivalent ion, playing the role of catalyst (such as calcium), • 3) an activator, which is indispensable for the activity of the enzyme, playing the role of solubilizer of the substrate in the reaction medium and enabling promoting the enzyme-substrate interaction (preferably sodium deoxycholate).
The enzyme in the presence of its cofactor is incubated for a determined period of time (e.g. about 15 minutes) with the inhibitor, and then a second incubation is carried out for (e.g. about 20 minutes) in the presence of the substrate which is preferably β-arachidonoyl γ-palmitoyl L-α-phosphatidylcholine and of the activator, which is preferably sodium deoxycholate.
At the end of this incubation, a determination of the non-esterified fatty acids is made on the reaction medium by an enzymatic technique that it is for example possible to follow by colorimetry at a defined wavelength.
In parallel, a control corresponding to the activity of the phospholipase A2 in the absence of inhibitor is carried out.
The PLA2 in aqueous solution (35 Units/ml), is placed in the presence of 3 mM β-arachidonoyl γ-palmitoyl L-α-phosphatidylcholine, which is a phospholipid containing, in SN2 position, site hydrolyzed by the phospholipase A2, arachidonic add, which is specifically an important fatty acid involved in the synthesis of the mediators of inflammation,
a) the enzyme in the presence of the cofactor (calcium) is incubated for 15 minutes at ambient temperature (20° C.) with the inhibitor;
b) then, a second incubation of 20 minutes is made in the presence of β-arachidonoyl γ-palmitoyl L-α-phosphatidylcholine (3 mM) and sodium deoxycholate (1.6 mM).
At the end of this incubation, a determination of the free fatty acids, thus non-esterified free fatty acids, is made on the reaction medium by a classical enzymatic technique which is well-known to the person skilled in the art, that it is possible to follow by colorimetry, e.g. here at 550 nm,
The anti-PLA2 activity of increasing concentrations of the product selected was measured over three different batches of starting material. Each determination was made in triplicate, […]

[1] = non-diluted, initial concentrations: aristolochic acid 2 mM, p-bromophenacyl bromide 10 mM, nordihydroguaiaretic acid 5 mM
[2] = Table VII, read-out: percentage inhibition with respect to control
[3] = Table VII, 10 mM, read-out: percentage inhibition with respect to control

T1 sequence (P00592 23-146): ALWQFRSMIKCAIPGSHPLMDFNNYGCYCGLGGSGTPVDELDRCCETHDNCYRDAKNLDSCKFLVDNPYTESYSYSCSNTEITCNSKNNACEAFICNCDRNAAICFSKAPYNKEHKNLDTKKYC

Compound: CC(Cc1ccc(O)c(O)c1)C(C)Cc1ccc(O)c(O)c1 (centres unmarked) [nordihydroguaiaretic acid]
Inhibition (%) Product diluted at 1/100 in demineralized water: 8.8% ± 0.8
Inhibition (%) Non-diluted product [1]: 97.3% ± 13.2

Compound: COc1ccc2c(c1)c(CC(=O)O)c(C)n2C(=O)c1ccc(Cl)cc1 [Indomethacin]
inhibition at 1000 µM [2]: 0%
inhibition at 10000 µM [3]: 25.7%

Compound: O=c1c(-c2ccc(O)cc2)coc2cc(O)cc(O)c12 [genistein]
inhibition of the PLA2 (commercial 1% genistein solution): 28.79%

Compound: Magnesium gluconate
Inhibition by substance diluted at 1% in demineralized water (%): 0%
Inhibition by substance tested pure (%): 3.4%

Compound: COc1cccc2c1cc([N+](=O)[O-])c1c(C(=O)O)cc3c(c12)OCO3 [Aristolochic acid, 8-methoxy-6-nitrophenanthro(3,4-d)-1,3-dioxole-5-carboxylic acid]
Inhibition (%) Product diluted at 1/100 in demineralized water: 10.00% ± 3.4
Inhibition (%) Product diluted at 1/1000 in demineralized water (initial solution diluted at 1/1000 in demineralized water): 0.25% ± 0.5
Inhibition (%) Non-diluted product [1]: 96.2% ± 1.04

Compound: Zinc gluconate
Inhibition by substance diluted at 1% in demineralized water (%): 12.6%
Inhibition by substance tested pure (%): 50%

Compound: O=C(CBr)c1ccc(Br)cc1 [p-bromophenacyl bromide]
Inhibition (%) Product diluted at 1/100 in demineralized water: 4.5% ± 2.3
inhibition at 10000 µM (non-diluted, initial concentrations: aristolochic acid 2 mM, p-bromophenacyl bromide 10 mM, nordihydroguaiaretic acid 5 mM, read-out: Inhibition (%) Non-diluted product): 29.9%

Compound: O=C(O)Cc1ccccc1Nc1c(Cl)cccc1Cl [Diclofenac]
inhibition at 1000 µM [2]: 8%
inhibition at 10000 µM [3]: 29.8%

Compound: CC(=O)Oc1ccccc1C(=O)O [Aspirin]
inhibition at 1000 µM [2]: 3.5%
inhibition at 10000 µM [3]: 7%

The remaining lines, values ahead:

inhibition at 10000 µM [3]: 6.3%
Compound: C[C@]12C=CC(=O)C=C1CC[C@@H]1[C@@H]2[C@@H](O)C[C@@]2(C)[C@H]1CC[C@]2(O)C(=O)CO [Prednisolone]

inhibition at 10000 µM [3]: 4.5%
Compound: C[C@]12CCC(=O)C=C1CC[C@@H]1[C@@H]2[C@@H](O)C[C@@]2(C)[C@H]1CC[C@]2(O)C(=O)CO [Hydrocortisone]

percentage inhibition with respect to control (Table VII, 10 mM): 0%
Compound: C[C@]12CCC(=O)C=C1CC[C@@H]1[C@@H]2C(=O)C[C@@]2(C)[C@H]1CC[C@]2(O)C(=O)CO [Cortisone]

inhibition at 1000 µM [2]: 6.9%
inhibition at 10000 µM [3]: 40.3%
Compound: CC(C)Cc1ccc(C(C)C(=O)O)cc1 (centres unmarked) [Ibuprofen]
